# Source: ChEMBL document CHEMBL3431459, “Roche carnitine palmitoyltransferase modulator screening data (supplementary data associated with the publication CHEMBL2216752)”
# How the values were obtained:
# [1] = biological target: T1, Carnitine O-palmitoyltransferase 2, mitochondrial (Rattus norvegicus, UniProt P18886); experiment: (§1) SUPPLEMENTARY: Inhibition of Carnitine palmitoyltransferase 2
# T1 sequence (P18886 whole entry): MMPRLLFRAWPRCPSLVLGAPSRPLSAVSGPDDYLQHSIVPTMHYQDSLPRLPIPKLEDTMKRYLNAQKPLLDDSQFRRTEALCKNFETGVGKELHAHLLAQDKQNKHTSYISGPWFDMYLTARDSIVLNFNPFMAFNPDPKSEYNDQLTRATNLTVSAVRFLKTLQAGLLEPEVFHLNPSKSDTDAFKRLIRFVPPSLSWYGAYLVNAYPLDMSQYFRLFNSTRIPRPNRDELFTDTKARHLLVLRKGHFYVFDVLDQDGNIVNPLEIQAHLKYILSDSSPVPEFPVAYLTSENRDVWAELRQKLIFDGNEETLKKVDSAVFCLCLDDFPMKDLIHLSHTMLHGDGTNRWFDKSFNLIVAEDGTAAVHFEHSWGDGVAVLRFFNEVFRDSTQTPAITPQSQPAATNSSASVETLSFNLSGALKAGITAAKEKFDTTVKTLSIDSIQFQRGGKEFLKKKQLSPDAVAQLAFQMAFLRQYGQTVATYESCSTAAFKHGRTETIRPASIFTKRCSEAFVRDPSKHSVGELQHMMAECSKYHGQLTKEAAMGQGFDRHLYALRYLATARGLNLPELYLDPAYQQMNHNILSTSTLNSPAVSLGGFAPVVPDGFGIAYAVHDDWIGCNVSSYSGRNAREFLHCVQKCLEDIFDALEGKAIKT
# [2] = biological target: T2, Carnitine O-palmitoyltransferase 2, mitochondrial (Homo sapiens, UniProt P23786); experiment: as §1
# T2 sequence (P23786 whole entry): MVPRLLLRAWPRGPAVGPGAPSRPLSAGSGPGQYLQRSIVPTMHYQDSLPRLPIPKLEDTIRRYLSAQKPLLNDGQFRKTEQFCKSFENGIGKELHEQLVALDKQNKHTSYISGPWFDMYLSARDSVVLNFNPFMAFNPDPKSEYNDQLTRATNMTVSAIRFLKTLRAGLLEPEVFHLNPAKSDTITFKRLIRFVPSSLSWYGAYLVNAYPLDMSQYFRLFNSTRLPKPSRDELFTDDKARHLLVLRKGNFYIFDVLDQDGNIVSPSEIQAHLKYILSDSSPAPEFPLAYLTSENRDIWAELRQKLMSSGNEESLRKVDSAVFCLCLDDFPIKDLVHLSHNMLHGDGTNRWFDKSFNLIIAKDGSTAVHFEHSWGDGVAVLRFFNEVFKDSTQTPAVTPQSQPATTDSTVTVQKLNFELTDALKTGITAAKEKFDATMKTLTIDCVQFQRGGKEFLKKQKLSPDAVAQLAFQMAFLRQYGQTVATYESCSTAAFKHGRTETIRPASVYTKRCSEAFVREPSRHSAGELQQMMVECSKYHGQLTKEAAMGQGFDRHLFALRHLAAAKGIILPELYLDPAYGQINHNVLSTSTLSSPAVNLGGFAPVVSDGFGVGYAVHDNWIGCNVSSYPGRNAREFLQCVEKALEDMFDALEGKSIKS
# [3] = biological target: T3, Carnitine O-palmitoyltransferase 1, muscle isoform (Homo sapiens, UniProt Q92523); experiment: SUPPLEMENTARY: Inhibition of Carnitine palmitoyltransferase 1, muscle isoform; set-up: species or system Muscle tissue
# T3 sequence (Q92523 whole entry): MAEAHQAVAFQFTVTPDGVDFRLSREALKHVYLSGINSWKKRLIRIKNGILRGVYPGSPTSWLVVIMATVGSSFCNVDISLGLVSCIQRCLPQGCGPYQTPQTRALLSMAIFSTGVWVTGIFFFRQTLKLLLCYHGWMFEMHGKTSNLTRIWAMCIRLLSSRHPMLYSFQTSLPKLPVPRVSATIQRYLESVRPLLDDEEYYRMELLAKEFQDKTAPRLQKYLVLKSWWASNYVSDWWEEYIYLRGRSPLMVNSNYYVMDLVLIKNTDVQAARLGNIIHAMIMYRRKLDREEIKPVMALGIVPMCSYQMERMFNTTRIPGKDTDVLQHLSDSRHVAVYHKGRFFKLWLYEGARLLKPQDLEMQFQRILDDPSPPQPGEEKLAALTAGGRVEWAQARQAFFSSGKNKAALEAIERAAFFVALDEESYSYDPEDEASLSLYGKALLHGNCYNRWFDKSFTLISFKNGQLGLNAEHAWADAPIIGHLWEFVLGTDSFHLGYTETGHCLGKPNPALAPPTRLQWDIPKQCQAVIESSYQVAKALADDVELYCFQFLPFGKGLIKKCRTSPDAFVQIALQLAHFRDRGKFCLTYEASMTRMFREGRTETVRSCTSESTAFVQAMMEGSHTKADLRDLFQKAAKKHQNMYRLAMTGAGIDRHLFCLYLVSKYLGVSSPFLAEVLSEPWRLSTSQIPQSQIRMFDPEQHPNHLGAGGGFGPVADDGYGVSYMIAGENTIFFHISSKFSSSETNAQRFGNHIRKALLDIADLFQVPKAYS
# [4] = biological target: T4, Carnitine O-palmitoyltransferase 1, liver isoform (Homo sapiens, UniProt P50416); experiment: (§2) SUPPLEMENTARY: Inhibition of Carnitine palmitoyltransferase 1, liver isoform
# T4 sequence (P50416 whole entry): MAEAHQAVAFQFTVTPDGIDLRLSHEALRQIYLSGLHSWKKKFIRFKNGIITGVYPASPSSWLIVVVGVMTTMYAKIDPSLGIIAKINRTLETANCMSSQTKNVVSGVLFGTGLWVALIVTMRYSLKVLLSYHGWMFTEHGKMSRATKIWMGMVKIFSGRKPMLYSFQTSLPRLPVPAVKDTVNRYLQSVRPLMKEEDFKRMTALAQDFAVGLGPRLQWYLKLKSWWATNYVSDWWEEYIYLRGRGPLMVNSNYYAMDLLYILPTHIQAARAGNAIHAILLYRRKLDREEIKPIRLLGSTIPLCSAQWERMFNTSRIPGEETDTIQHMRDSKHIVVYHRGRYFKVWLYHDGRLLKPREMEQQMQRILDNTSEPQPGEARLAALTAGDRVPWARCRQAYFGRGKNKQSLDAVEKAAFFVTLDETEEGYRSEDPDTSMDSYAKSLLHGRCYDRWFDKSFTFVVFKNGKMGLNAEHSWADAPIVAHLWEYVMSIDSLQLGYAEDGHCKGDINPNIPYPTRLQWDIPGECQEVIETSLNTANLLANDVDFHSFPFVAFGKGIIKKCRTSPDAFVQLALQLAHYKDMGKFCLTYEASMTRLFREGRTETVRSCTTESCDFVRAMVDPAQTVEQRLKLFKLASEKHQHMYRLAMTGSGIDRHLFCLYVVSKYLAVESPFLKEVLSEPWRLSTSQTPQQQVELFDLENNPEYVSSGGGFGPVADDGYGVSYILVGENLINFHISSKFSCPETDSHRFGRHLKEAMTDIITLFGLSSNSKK
# [5] = biological target: T5, Carnitine O-palmitoyltransferase 1, liver isoform (Rattus norvegicus, UniProt P32198); experiment: as §2
# T5 sequence (P32198 whole entry): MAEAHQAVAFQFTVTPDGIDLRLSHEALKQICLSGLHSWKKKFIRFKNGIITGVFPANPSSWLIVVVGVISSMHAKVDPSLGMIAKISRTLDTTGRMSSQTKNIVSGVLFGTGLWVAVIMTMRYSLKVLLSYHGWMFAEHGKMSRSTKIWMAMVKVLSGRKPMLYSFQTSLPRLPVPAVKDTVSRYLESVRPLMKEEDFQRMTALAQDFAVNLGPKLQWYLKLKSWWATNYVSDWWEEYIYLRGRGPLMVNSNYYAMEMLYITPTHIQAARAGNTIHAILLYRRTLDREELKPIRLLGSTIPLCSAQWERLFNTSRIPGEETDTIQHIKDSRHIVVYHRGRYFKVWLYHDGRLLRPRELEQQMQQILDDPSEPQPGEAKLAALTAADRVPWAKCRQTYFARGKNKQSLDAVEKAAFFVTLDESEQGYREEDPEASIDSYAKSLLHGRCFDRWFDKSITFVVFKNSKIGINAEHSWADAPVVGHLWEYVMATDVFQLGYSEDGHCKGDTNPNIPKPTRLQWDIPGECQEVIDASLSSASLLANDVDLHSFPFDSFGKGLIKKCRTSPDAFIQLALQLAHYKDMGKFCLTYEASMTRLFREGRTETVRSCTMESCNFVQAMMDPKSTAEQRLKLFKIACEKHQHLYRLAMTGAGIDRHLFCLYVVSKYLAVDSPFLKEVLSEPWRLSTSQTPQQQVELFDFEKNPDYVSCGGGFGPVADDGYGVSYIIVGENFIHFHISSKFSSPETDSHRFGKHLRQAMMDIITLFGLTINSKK
# [6] = SUPPLEMENTARY: Lipophilicity (log D) Determination by high-throughput shake-flask; type: physicochemical; conditions: octanol/water
# [7] = SUPPLEMENTARY: Lyophilisation Solubility Assay (LYSA); type: physicochemical; conditions: read-out: Kinetic_solubility
# [8] = SUPPLEMENTARY: PAMPA permeability assay; type: physicochemical; conditions: read-out: Permeability
SMILES,IC50 [1],IC50 [2],IC50 [3],IC50 [4],IC50 [5],logD [6],solubility kinetic [7],Papp [8]
O=C(COc1ccncc1)N1CCCC[C@@H]1c1nnc(-c2cccc(C(F)(F)F)c2)[nH]1,41.2 µM,43.5 µM,10.4 µM,0.165 µM,0.194 µM,3.29,78 µg/mL,1.75 ×10⁻⁶ cm/s
COc1ccc(Cl)cc1S(=O)(=O)Nc1cc(C(=O)Nc2ccc(C(=O)O)cc2)cc(OC)c1OC,1.07 µM,3.03 µM,> 100 µM,0.0436 µM,0.253 µM,0.56,> 598 µg/mL,1.57 ×10⁻⁶ cm/s
O=C(COc1ccccc1)N1CCCC[C@@H]1c1noc(-c2ccc3cccnc3n2)n1,> 100 µM,21.4 µM,> 100 µM,0.129 µM,0.153 µM,2.35,31.5 µg/mL,5.43 ×10⁻⁶ cm/s
O=C(Nc1ccc(C(=O)O)c(F)c1)c1ccc2c(c1)N(S(=O)(=O)c1cccc(C(F)(F)F)c1)CC2,72.2 µM,32 µM,42.2 µM,0.167 µM,0.0795 µM,2.77,9 µg/mL,1.99 ×10⁻⁶ cm/s
O=C(COc1ccccc1)N1CCCC[C@@H]1c1noc(-c2cc([N+](=O)[O-])[nH]n2)n1,> 100 µM,> 100 µM,> 100 µM,0.14 µM,0.388 µM,1.07,68 µg/mL,6.99 ×10⁻⁶ cm/s
O=C1COc2ccc(-c3n[nH]c([C@H]4CCCCN4C(=O)COc4ccccc4)n3)cc2N1,82.8 µM,49 µM,94.2 µM,0.121 µM,0.0616 µM,2.57,62 µg/mL,0.95 ×10⁻⁶ cm/s
COc1ccc(C)cc1S(=O)(=O)N1CCCc2ccc(C(=O)Nc3ccc(C(=O)O)c(F)c3)cc21,8.13 µM,4.43 µM,5.18 µM,0.152 µM,0.0909 µM,0.88,60 µg/mL,1.62 ×10⁻⁶ cm/s
O=C(COc1ccccc1)N1CCCC[C@@H]1c1nc(-c2cccc(N3CCCS3(=O)=O)c2)no1,> 100 µM,> 100 µM,> 100 µM,0.0597 µM,0.0598 µM,2.82,< 1 µg/mL,24.5 ×10⁻⁶ cm/s
O=C(COc1ccccc1)N1CCCC[C@@H]1c1nc(-c2cccs2)n[nH]1,> 100 µM,29.3 µM,> 100 µM,0.108 µM,0.565 µM,2.96,101 µg/mL,2.69 ×10⁻⁶ cm/s
O=C([C@H]1CCCCN1C(=O)COc1ccccc1)N1Cc2ccc(O[C@@H]3CCOC3)cc2C1,1.41 µM,0.489 µM,> 100 µM,0.0636 µM,0.0416 µM,2.58,81 µg/mL,11.5 ×10⁻⁶ cm/s
